Test results from US9481610B2, “Use of a fertilizer containing L-amino acid for improving root growth and growth of mycorrhiza” (SweTree Technologies AB, priority 2007, dated 2016).

Legend:
[1] = tested on: Scots pine roots; test: Evaluation of mycorrhiza of Scots pine roots (chitin content); type: in vivo; conditions: fertilization with arginine
[2] = tested on: Arabidposis thaliana; test: Growth and allocation of biomass as affected by nitrogen form in Arabidopsis; type: in vivo; conditions: sterile culture 21 days, total nitrogen 6 mM

Structure (SMILES)	chitin content of roots versus reference (in words) [1]	Root fraction [2]	Total biomass [2]
N=C(N)NCCC[C@H](N)C(=O)O [L-Arginine]	substantially higher content of chitin in roots		
O=[N+]([O-])O [nitrate]		0.12	4.63
